Measurements from paper PMC8247115 (Cell, 2020).

Assays:
CB1 = details: read-out: Ki CB1; antagonist on CB1; ref Dhopeshwarkar et al., 2017; cited from earlier work
CB2 [1] = molecular target: T1, CB2 (Homo sapiens, UniProt P34972); details: read-out: Ki CB2; partial agonist on CB2; ref Dhopeshwarkar et al., 2017; cited from earlier work
CB2 [2] = molecular target: T1, CB2; assay: cell-based; assay type: cell-based; details: for functional behaviour at CB2: cAMP functional assay

T1 sequence (P34972 whole entry): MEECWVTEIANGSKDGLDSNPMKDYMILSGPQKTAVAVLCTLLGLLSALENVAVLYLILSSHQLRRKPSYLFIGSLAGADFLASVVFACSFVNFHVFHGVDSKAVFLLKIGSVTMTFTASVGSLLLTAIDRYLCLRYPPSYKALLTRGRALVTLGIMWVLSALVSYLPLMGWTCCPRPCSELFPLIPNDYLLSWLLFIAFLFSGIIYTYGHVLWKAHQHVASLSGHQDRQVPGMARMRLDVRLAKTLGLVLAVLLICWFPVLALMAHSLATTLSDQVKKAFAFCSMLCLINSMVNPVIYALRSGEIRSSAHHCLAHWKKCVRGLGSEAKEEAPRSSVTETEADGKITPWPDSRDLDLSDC

Row | SMILES | Ki (CB1) | Ki (CB2 [1]) | EC50 (CB2 [2]) | functional behaviour at CB2 (CB2 [2])
1 | COc1ccc2c(c1)c(CCN1CCOCC1)c(C)n2C(=O)c1cccc(Cl)c1Cl [GW-405,833] | 4.77 ± 1.68 µM | 0.00392 ± 0.00158 µM | – | –
2 | CCN(CC)c1ccc(CN(Cc2cc(OC)c(OC)c(OC)c2)S(=O)(=O)/C=C/c2ccccc2)cc1 [XIE55, (E)-N-(4-(diethylamino)benzyl)-2-phenyl-N-(3,4,5-trimethoxybenzyl)ethene-1-sulfonamide] | – | – | 1.5 ± 0.4 µM | inverse agonist
3 | CCN(CC)c1ccc(CN(Cc2cc(OC)c(OC)c(OC)c2)S(=O)(=O)c2cccs2)cc1 [XIE57, N-(4-(diethylamino)benzyl)-N-(3,4,5-trimethoxybenzyl)thiophene-2-sulfonamide] | – | – | 6.9 ± 2.9 µM | partial agonist
